Test results published in patent US20240041042A1, “1-(PYRIDYL)-5-AZINYLPYRAZOLE DERIVATIVES, AND THEIR USE FOR CONTROL OF UNDESIRED PLANT GROWTH” (Bayer Aktiengesellschaft, priority 2020, published 2024).
Where two headings read alike, the source gives them in different places.

Tests used:
Type in all cases: in vivo
[1] = system: Abutilon theophrasti (ABUTH); test: Pre-emergence herbicidal action against ABUTH; settings: 100% = plants have died
Source text: Seeds of monocotyledonous and dicotyledonous weed plants and crop plants are placed in plastic or organic planting pots and covered with soil. The compounds of the invention, formulated in the form of wettable powders (WP) or as emulsion concentrates (EC), are then applied to the surface of the covering soil as aqueous suspension or emulsion with addition of 0.5% additive at a water application rate equivalent to 600 l/ha. After the treatment, the pots are placed in a greenhouse and kept under good growth conditions for the trial plants. After about 3 weeks, the effect of the preparations is scored visually in comparison with untreated controls as percentages. For example, 100% activity=the plants have died, 0% activity=like control plants.
Tables A1 to A13 below show the effects of selected compounds of the general formula (I) on various harmful plants and at an application rate corresponding to 320 g/ha or lower, which were obtained by the experimental procedure mentioned above. The appendices “a”, “b” and “c” give differentiation by dosage used with otherwise the same harmful plants tested.

[2] = system: Alopecurus myosuroides (ALOMY); test: Pre-emergence herbicidal action against ALOMY; settings: scored visually after about 3 weeks, 100% = plants have died
Method in brief: (§1)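 Pre-emergence soil-surface spray, WP/EC formulation, 0.5% additive, 600 l/ha water, rates of 320 g/ha or lower. Greenhouse, ~3 wk. Visual score, % of untreated control (100% = plants dead, 0% = like control).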

[3] = system: Amaranthus retroflexus (AMARE); test: Pre-emergence herbicidal action against AMARE; settings: visual scoring after about 3 weeks vs untreated controls
Method in brief: as §1

Avena fatua (AVEFA) [4] = test: Pre-emergence herbicidal action against AVEFA; settings: 320 g/ha, visual scoring after about 3 weeks vs untreated controls
Method in brief: as §1

[5] = system: Echinochloa crus-galli (ECHCG); test: Pre-emergence herbicidal action against ECHCG
Method in brief: as §1

Lolium rigidum (LOLRI) [6] = test: Pre-emergence herbicidal action against LOLRI
Method in brief: as §1

[7] = system: Matricaria inodora (MATIN); test: Pre-emergence herbicidal action against MATIN
Method in brief: as §1

[8] = system: Pharbitis purpurea (PHBPU); test: Pre-emergence herbicidal action against PHBPU
Method in brief: as §1

[9] = system: Polygonum convolvulus (POLCO); test: Pre-emergence herbicidal action against POLCO
Method in brief: as §1

Setaria viridis (SETVI) [10] = test: Pre-emergence herbicidal action against SETVI
Method in brief: as §1

[11] = system: Verconica persica (VERPE); test: Pre-emergence herbicidal action against VERPE
Method in brief: as §1

Viola tricolor (VIOTR) [12] = test: Pre-emergence herbicidal action against VIOTR
Method in brief: as §1

[13] = system: Abutilon theophrasti (ABUTH); test: Post-emergence herbicidal action against ABUTH; settings: visual rating about 3 weeks after treatment vs untreated controls (100% = plants have died, 0% = like control plants)
Method in brief: (§2)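 Doses of 320 g/ha or lower, suffixes a, b and c marking different dosages, were applied post-emergence at the one-leaf stage in 600 l/ha water with 0.5% additive. Damage was assessed visually after about 3 weeks in the greenhouse.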

[14] = system: Alopecurus myosuroides (ALOMY); test: Post-emergence herbicidal action against ALOMY; settings: visual rating about 3 weeks after treatment vs untreated controls (100% = plants have died, 0% = like control plants)
Method in brief: as §2

[15] = system: Amaranthus retroflexus (AMARE); test: Post-emergence herbicidal action against AMARE
Method in brief: as §2

Avena fatua (AVEFA) [16] = test: Post-emergence herbicidal action against AVEFA; settings: visual rating about 3 weeks after treatment
Method in brief: as §2

[17] = system: Echinochloa crus-galli (ECHCG); test: Post-emergence herbicidal action against ECHCG
Method in brief: as §2

Lolium rigidum (LOLRI) [18] = test: Post-emergence herbicidal action against LOLRI
Method in brief: as §2

[19] = system: Pharbitis purpurea (PHBPU); test: Post-emergence herbicidal action against PHBPU
Method in brief: as §2

Setaria viridis (SETVI) [20] = test: Post-emergence herbicidal action against SETVI
Method in brief: as §2

[21] = system: Verconica persica (VERPE); test: Post-emergence herbicidal action against VERPE
Method in brief: as §2

Viola tricolor (VIOTR) [22] = test: Post-emergence herbicidal action against VIOTR; settings: 320 g/ha
Method in brief: as §2

Oryza sativa (ORYSA) = settings: crop plant compatibility
Method in brief: (§3)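 Effects were read visually as % versus untreated controls (0% = no effect, 100% = death) about 3 weeks post-treatment. Application was a post-emergence spray at the one-leaf stage of WP/EC formulations with 0.5% additive at 600 l/ha. Different dosages are denoted a, b and c.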

Zea mays (ZEAMX) = settings: crop plant compatibility, 80 g/ha, effect vs untreated controls
Method in brief: as §3

[23] = system: Polygonum convolvulus (POLCO); test: Post-emergence herbicidal action against POLCO; settings: dosage 80 g/ha
Method in brief: as §2

[24] = 80 g/ha, scored visually after about 3 weeks vs untreated controls, 0% = like control plants
[25] = Dosage column 320 g/ha (title prints 3200 g/ha), scored visually after about 3 weeks
[26] = 80 g/ha, visual rating about 3 weeks after treatment vs untreated controls (100% = plants have died, 0% = like control plants)
[27] = 80 g/ha, effect in comparison to untreated controls
[28] = 20 g/ha, effect vs untreated controls

Structure (SMILES)	Pre-emergence action against ABUTH [1, 24]	Pre-emergence action against ABUTH [1, 25]	Pre-emergence action against ALOMY ([2]; 320 g/ha)	Pre-emergence action against AMARE in % ([3]; 80 g/ha)	Pre-emergence action against AMARE in % ([3]; 320 g/ha)	Pre-emergence action against AVEFA in % (Avena fatua (AVEFA) [4])	Pre-emergence action against ECHCG in % ([5]; dosage 320 g/ha)	Pre-emergence action against LOLRI in % (Lolium rigidum (LOLRI) [6]; dosage 80 g/ha)	Pre-emergence action against LOLRI in % (Lolium rigidum (LOLRI) [6]; dosage 320 g/ha)	Pre-emergence action against MATIN in % ([7]; dosage 320 g/ha)	Pre-emergence action against PHBPU in % ([8]; dosage 320 g/ha)	Pre-emergence action against POLCO in % ([9]; dosage 80 g/ha)	Pre-emergence action against POLCO in % ([9]; dosage 320 g/ha)	Pre-emergence action against SETVI in % (Setaria viridis (SETVI) [10]; dosage 320 g/ha)	Pre-emergence action against VERPE in % ([11]; dosage 320 g/ha)	Pre-emergence action against VIOTR in % (Viola tricolor (VIOTR) [12]; 320 g/ha, Viola tricolor)	Pre-emergence action against VIOTR in % (Viola tricolor (VIOTR) [12]; dosage 80 g/ha)	Post-emergence action against ABUTH in % ([13]; 80 g/ha)	Post-emergence action against ALOMY in % ([14]; 80 g/ha)	Post-emergence action against AMARE in % [15, 26]	further results
COC(=O)[C@@H](C)Oc1nn(-c2nc(F)ccc2F)c(-c2ccc(F)nc2)c1Cl [Example I-332]	80%	80%	100%	80%	100%	100%	100%	90%	100%	90%	100%	80%	80%	100%	90%	100%	90%	80%	80%	80%	Pre-emergence action against ECHCG in % ([5]; dosage 80 g/ha): 80%; Pre-emergence action against VERPE in % ([11]; dosage 80 g/ha): 80%; Post-emergence action against ABUTH in % ([13]; 320 g/ha): 80%; Post-emergence action against ALOMY in % ([14]; 320 g/ha): 90%; Post-emergence action against AMARE in % ([15]; 320 g/ha, visual rating about 3 weeks after treatment): 80%; Post-emergence action against AVEFA in % (Avena fatua (AVEFA) [16]; 80 g/ha): 80%; Post-emergence action against AVEFA in % (Avena fatua (AVEFA) [16]; 320 g/ha): 90%; Post-emergence action against ECHCG in % ([17]; dosage 80 g/ha): 80%; Post-emergence action against ECHCG in % ([17]; dosage 320 g/ha): 90%; Post-emergence action against LOLRI in % (Lolium rigidum (LOLRI) [18]; dosage 80 g/ha): 80%; Post-emergence action against LOLRI in % (Lolium rigidum (LOLRI) [18]; dosage 320 g/ha): 90%; Post-emergence action against PHBPU in % ([19]; dosage 80 g/ha): 80%; Post-emergence action against PHBPU in % ([19]; dosage 320 g/ha): 80%; Post-emergence action against SETVI in % (Setaria viridis (SETVI) [20]; dosage 320 g/ha): 80%; Post-emergence action against VERPE in % ([21]; 320 g/ha, VERPE): 80%; Post-emergence action against VIOTR in % (Viola tricolor (VIOTR) [22]): 80%; Post-emergence action against ORYSA in % (Oryza sativa (ORYSA); [27]): 20%; Post-emergence action against ZEAMX in % (Zea mays (ZEAMX)): 10%
COC(=O)CCOC(=O)[C@@H](C)Oc1nn(-c2ccccn2)c(-c2cncc(F)c2)c1Br [Example I-73]	80%	90%	100%	100%	100%	80%	90%	100%	100%	90%	90%	80%	90%	100%	100%	100%	100%	80%	100%	90%	Pre-emergence action against ALOMY ([2]; 80 g/ha): 90%; Pre-emergence action against SETVI in % (Setaria viridis (SETVI) [10]; dosage 80 g/ha): 90%; Post-emergence action against AVEFA in % (Avena fatua (AVEFA) [16]; 80 g/ha): 80%; Post-emergence action against ECHCG in % ([17]; dosage 80 g/ha): 80%; Post-emergence action against LOLRI in % (Lolium rigidum (LOLRI) [18]; dosage 80 g/ha): 80%; Post-emergence action against PHBPU in % ([19]; dosage 80 g/ha): 90%; Post-emergence action against POLCO in % [23]: 90%; Post-emergence action against SETVI in % (Setaria viridis (SETVI) [20]; dosage 80 g/ha): 80%; Post-emergence action against VERPE in % ([21]; dosage 80 g/ha): 80%; Post-emergence action against ORYSA in % (Oryza sativa (ORYSA); [28]): 0%; Post-emergence action against ORYSA in % (Oryza sativa (ORYSA); [27]): 10%
C[C@@H](Oc1nn(-c2ccccn2)c(-c2cncc(F)c2)c1Br)C(=O)O [Example I-79]	80%	90%	100%	100%	100%	100%	100%	100%	100%	90%	90%	90%	90%	100%	100%	100%	100%	80%	80%	90%	Pre-emergence action against ALOMY ([2]; 80 g/ha): 90%; Pre-emergence action against ECHCG in % ([5]; dosage 80 g/ha): 80%; Pre-emergence action against MATIN in % ([7]; dosage 80 g/ha): 80%; Pre-emergence action against PHBPU in % ([8]; dosage 80 g/ha): 90%; Pre-emergence action against SETVI in % (Setaria viridis (SETVI) [10]; dosage 80 g/ha): 100%; Pre-emergence action against VERPE in % ([11]; dosage 80 g/ha): 80%; Post-emergence action against AVEFA in % (Avena fatua (AVEFA) [16]; 80 g/ha): 100%; Post-emergence action against PHBPU in % ([19]; dosage 80 g/ha): 80%; Post-emergence action against POLCO in % [23]: 80%; Post-emergence action against SETVI in % (Setaria viridis (SETVI) [20]; dosage 80 g/ha): 80%; Post-emergence action against VERPE in % ([21]; dosage 80 g/ha): 80%; Post-emergence action against ORYSA in % (Oryza sativa (ORYSA); [28]): 0%; Post-emergence action against ORYSA in % (Oryza sativa (ORYSA); [27]): 0%
